Read-outs that look alike come from different tables or passages of the source.
Legend:
recombinant HTLV-1 IN [1] = biological target: T1, recombinant HTLV-1 IN (Human T-cell leukemia virus 1, UniProt P03362); assay: In vitro integration strand transfer assay with HTLV-1 IN; type: biochemical; details: INSTI at 634 nM
T1 construct: made in house
In short: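 Recombinant HTLV-1 IN (4 μg) with annealed 3′-processed LTR donor DNA (0.53 μM) preincubated 15 min RT with compound (screen at 634 nM) in PIPES pH 6.0, NaCl, MgCl2, ZnCl2, DTT; supercoiled plasmid target added, 1 h 37 °C. Concerted integration product quantified by agarose-gel densitometry; IC50 from dose–response fits, triplicate.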

HTLV-1 = details: cited from earlier work
STLV-1 IN (WT) = assay: In vitro strand transfer assay with wild-type STLV-1 IN; type: biochemical; parameters: STLV-1 WT strand transfer activity: unit not given here
Description: (§1) For STLV-1 IN, the reaction conditions were 25 mM BTP-HCl pH 6, 0.1 μM STLV-1 IN, 2 μM vDNA, 60 mM NaCl, 13.28 mM DTT, 10 mM MgCl2, 10 μM ZnCl2. STLV-1 IN and LEDGF/ΔIBD-B56γ were co-incubated at the above conditions at a 2:1 molar ratio, at 4 °C for 30 min. Donor vDNA was then added and the mixture was co-incubated at 37 °C for 10 min. For INSTI dose–response experiments, either the INSTI or DMSO control was then added, the sample was mixed and kept at 4 °C for an additional 15 min. Strand-transfer reactions were initiated by the addition of 300 ng of pGEM-9Zf(-) supercoiled plasmid DNA and stopped after 15 min of 37 °C incubation by adding 0.5% SDS and 25 mM EDTA, pH 8.0.
(§2) Proteins were degraded by incubation with 30 μg of proteinase K (Roche) at 37 °C for 1 h. DNA was precipitated at −20 °C overnight in the presence of ethanol supplemented with 20 μg of glycogen and then resuspended in 1.5× agarose loading dye. The DNA products were separated by electrophoresis through 1.5% agarose gel and stained with ethidium bromide and imaged using the BioRad GelDox XR + imager. The data were analysed and the IC50 calculated as previously described. In brief, the DNA band that corresponds to the concerted integration product was quantified by densitometry in ImageLab 4.1 (Bio-Rad). All experiments were done in triplicate. Quantified data points were fitted to dose–response curves in Prism 9. The cumulative standard deviation for each drug was calculated as an average of the upper limit and lower limit values: Lowerlimit=IC50/10^logSE(IC50) Upperlimit=IC50×10^logSE(IC50)

recombinant HTLV-1 IN [2] = biological target: T1, recombinant HTLV-1 IN; details: previously obtained values, cited from earlier work
STLV-1 IN(A219E) = assay: In vitro strand transfer assay with STLV-1 IN(A219E); type: biochemical; parameters: STLV-1 A219E strand transfer activity: unit not given here
Description: as §1, §2

HIV-1 = details: cited from earlier work
[3] = log10 concentration -3.69897, column 1 of 3
[4] = log10 concentration -3.69897, column 2 of 3
[5] = log10 concentration -4.69897, column 1 of 3
[6] = log10 concentration -4.69897, column 2 of 3
[7] = log10 concentration -5.69897, column 1 of 3
[8] = log10 concentration -5.69897, column 2 of 3
[9] = log10 concentration -6.19791, column 1 of 3
[10] = log10 concentration -6.19791, column 2 of 3
[11] = log10 concentration -6.69897, column 1 of 3
[12] = log10 concentration -6.69897, column 2 of 3
[13] = log10 concentration -7.19791, column 1 of 3
[14] = log10 concentration -7.19791, column 2 of 3
[15] = log10 concentration -7.69897, column 1 of 3
[16] = log10 concentration -7.69897, column 2 of 3
[17] = log10 concentration -8.69897, column 1 of 3
[18] = log10 concentration -8.69897, column 2 of 3
[19] = log10 concentration -10.699, column 1 of 3
[20] = log10 concentration -10.699, column 2 of 3

T1 sequence (P03362 1168-1462): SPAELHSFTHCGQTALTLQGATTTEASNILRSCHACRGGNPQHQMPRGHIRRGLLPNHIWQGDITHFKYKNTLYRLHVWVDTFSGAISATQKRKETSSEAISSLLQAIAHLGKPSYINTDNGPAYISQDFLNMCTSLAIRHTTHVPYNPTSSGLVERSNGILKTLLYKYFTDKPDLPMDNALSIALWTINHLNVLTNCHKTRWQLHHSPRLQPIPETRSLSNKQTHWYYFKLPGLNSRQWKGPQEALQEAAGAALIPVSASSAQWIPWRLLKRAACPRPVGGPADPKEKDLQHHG

Cc1nnc(C(=O)NC(C)(C)c2nc(C(=O)NCc3ccc(F)cc3)c(O)c(=O)n2C)o1 [Raltegravir]
HTLV-1 IN strand transfer activity (No drug = 100) (recombinant HTLV-1 IN [1]; Replicate 1): 34.4506%
HTLV-1 IN strand transfer activity (No drug = 100) (recombinant HTLV-1 IN [1]; Replicate 2): 36.5909%
EC50 (HTLV-1; MT-2-Jurkat cell-to-cell infection, read-out: HTLV-1 EC50): 6.42 ± 4.24 nM
EC50 (HTLV-1; Replicate 1, previously reported values, read-out: HTLV-1 infection EC50): 7.85 nM
EC50 (HTLV-1; Replicate 2, previously reported values, read-out: HTLV-1 infection EC50): 8.18 nM
EC50 (HTLV-1; Replicate 3, previously reported values, read-out: HTLV-1 infection EC50): 4.08 nM
sensitivity of STLV-1 IN to the inhibitor (STLV-1 IN (WT); Supplementary Fig. 9): highly sensitive
STLV-1 WT strand transfer activity (STLV-1 IN (WT); log10 concentration -3.69897): 15.0259
STLV-1 WT strand transfer activity (STLV-1 IN (WT); [3]): 3.382
STLV-1 WT strand transfer activity (STLV-1 IN (WT); [4]): 1.339
STLV-1 WT strand transfer activity (STLV-1 IN (WT); log10 concentration -4.69897): 15.0259
STLV-1 WT strand transfer activity (STLV-1 IN (WT); [5]): 1.932
STLV-1 WT strand transfer activity (STLV-1 IN (WT); [6]): 3.125
STLV-1 WT strand transfer activity (STLV-1 IN (WT); log10 concentration -5.69897): 25.9067
STLV-1 WT strand transfer activity (STLV-1 IN (WT); [7]): 14.0097
STLV-1 WT strand transfer activity (STLV-1 IN (WT); [8]): 13.3929
STLV-1 WT strand transfer activity (STLV-1 IN (WT); log10 concentration -6.19791): 38.342
STLV-1 WT strand transfer activity (STLV-1 IN (WT); [9]): 20.7729
STLV-1 WT strand transfer activity (STLV-1 IN (WT); [10]): 15.625
STLV-1 WT strand transfer activity (STLV-1 IN (WT); log10 concentration -6.69897): 40.9326
STLV-1 WT strand transfer activity (STLV-1 IN (WT); [11]): 26.57
STLV-1 WT strand transfer activity (STLV-1 IN (WT); [12]): 43.3036
STLV-1 WT strand transfer activity (STLV-1 IN (WT); log10 concentration -7.19791): 63.2124
STLV-1 WT strand transfer activity (STLV-1 IN (WT); [13]): 62.3188
STLV-1 WT strand transfer activity (STLV-1 IN (WT); [14]): 68.75
STLV-1 WT strand transfer activity (STLV-1 IN (WT); log10 concentration -7.69897): 94.3005
STLV-1 WT strand transfer activity (STLV-1 IN (WT); [15]): 86.4734
STLV-1 WT strand transfer activity (STLV-1 IN (WT); [16]): 94.1964
STLV-1 WT strand transfer activity (STLV-1 IN (WT); log10 concentration -8.69897): 91.7098
STLV-1 WT strand transfer activity (STLV-1 IN (WT); [17]): 100.483
STLV-1 WT strand transfer activity (STLV-1 IN (WT); [18]): 99.1071
STLV-1 WT strand transfer activity (STLV-1 IN (WT); log10 concentration -9.69897): 106.218
STLV-1 WT strand transfer activity (STLV-1 IN (WT); log10 concentration -9.69897, column 1 of 3): 101.449
STLV-1 WT strand transfer activity (STLV-1 IN (WT); log10 concentration -9.69897, column 2 of 3): 100.446
STLV-1 WT strand transfer activity (STLV-1 IN (WT); log10 concentration -10.699): 100.518
STLV-1 WT strand transfer activity (STLV-1 IN (WT); [19]): 102.415
STLV-1 WT strand transfer activity (STLV-1 IN (WT); [20]): 99.5536
IC50 (recombinant HTLV-1 IN [2]; Replicate 1, read-out: HTLV-1 IN strand transfer IC50): 477 nM
IC50 (recombinant HTLV-1 IN [2]; Replicate 2, read-out: HTLV-1 IN strand transfer IC50): 425 nM
IC50 (recombinant HTLV-1 IN [2]; Replicate 3, read-out: HTLV-1 IN strand transfer IC50): 344 nM
IC50 (recombinant HTLV-1 IN [2]; integrase strand-transfer, read-out: HTLV-1 IC50 ± stdev): 410 ± 78.5 nM
IC50 with STLV-1 IN A219E compared with wild-type STLV-1 IN (STLV-1 IN(A219E); Supplementary Fig. 9): nearly identical
STLV-1 A219E strand transfer activity (STLV-1 IN(A219E); log10 concentration -3.69897): 4.375
STLV-1 A219E strand transfer activity (STLV-1 IN(A219E); [3]): 11.7647
STLV-1 A219E strand transfer activity (STLV-1 IN(A219E); [4]): 5.393
STLV-1 A219E strand transfer activity (STLV-1 IN(A219E); log10 concentration -4.69897): 6.875
STLV-1 A219E strand transfer activity (STLV-1 IN(A219E); [5]): 7.843
STLV-1 A219E strand transfer activity (STLV-1 IN(A219E); [6]): 4.103
STLV-1 A219E strand transfer activity (STLV-1 IN(A219E); log10 concentration -5.69897): 7.8125
STLV-1 A219E strand transfer activity (STLV-1 IN(A219E); [7]): 11.7647
STLV-1 A219E strand transfer activity (STLV-1 IN(A219E); [8]): 9.8476
STLV-1 A219E strand transfer activity (STLV-1 IN(A219E); log10 concentration -6.19791): 12.6562
STLV-1 A219E strand transfer activity (STLV-1 IN(A219E); [9]): 16.6667
STLV-1 A219E strand transfer activity (STLV-1 IN(A219E); [10]): 12.4267
STLV-1 A219E strand transfer activity (STLV-1 IN(A219E); log10 concentration -6.69897): 25.4688
STLV-1 A219E strand transfer activity (STLV-1 IN(A219E); [11]): 27.9412
STLV-1 A219E strand transfer activity (STLV-1 IN(A219E); [12]): 28.136
STLV-1 A219E strand transfer activity (STLV-1 IN(A219E); log10 concentration -7.19791): 49.375
STLV-1 A219E strand transfer activity (STLV-1 IN(A219E); [13]): 64.2157
STLV-1 A219E strand transfer activity (STLV-1 IN(A219E); [14]): 59.4373
STLV-1 A219E strand transfer activity (STLV-1 IN(A219E); log10 concentration -7.69897): 90.625
STLV-1 A219E strand transfer activity (STLV-1 IN(A219E); [15]): 108.333
STLV-1 A219E strand transfer activity (STLV-1 IN(A219E); [16]): 86.2837
STLV-1 A219E strand transfer activity (STLV-1 IN(A219E); log10 concentration -8.69897): 101.406
STLV-1 A219E strand transfer activity (STLV-1 IN(A219E); [17]): 107.843
STLV-1 A219E strand transfer activity (STLV-1 IN(A219E); [18]): 97.5381
STLV-1 A219E strand transfer activity (STLV-1 IN(A219E); log10 concentration -10.699): 97.9688
STLV-1 A219E strand transfer activity (STLV-1 IN(A219E); [19]): 103.922
STLV-1 A219E strand transfer activity (STLV-1 IN(A219E); [20]): 99.8828
EC50 (HIV-1; HIV-1 infection model, supplementary ref 18, read-out: HIV-1 EC50 ± stdev): 9.4 ± 1.4 nM
EC50 (HIV-1; previously reported, read-out: EC50, infection by wild-type HIV-1): 4 ± 2 nM
